Here are results for 9 molecules from PubChem BioAssay (NCI).

Some test systems named below: HT29 colon; HCT-116 colon; NCI-H23 lung; PC-3 prostate; 786-0 renal; A498 renal; M14 melanoma; MDA-N; CAKI-1 renal; NCI/ADR-RES ovarian; TK-10 renal; SK-MEL-2 melanoma; MCF7 breast; BT-549 breast; SK-MEL-5 melanoma; OVCAR-3 ovarian.
Holding throughout (assay): NCI tumour cell line growth inhibition, 48 h

Where “and” joins values, the source holds several entries; their conditions need not be identical. Equal entries are not always repeated.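 Dose response: 5 concentrations. Exposure: 48 h. Format: 96-well plates. Endpoint: linear interpolation; highest concentration if not reached. GI50 = concentration required for 50% inhibition of growth. TGI marks complete inhibition of growth.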

On to `c1csc(-c2ccc(-c3ccsc3)s2)c1`, for which the TGI in the assay with HT29 colon, in the assay on HCT-116 colon, with NCI-H23 lung, in the assay on PC-3 prostate, in the assay with 786-0 renal and in the assay with A498 renal was greater than 100 µM in each case. Moreover, the TGI in the assay with M14 melanoma, with MDA-N, in the assay with CAKI-1 renal, in the assay with NCI/ADR-RES ovarian, in the assay with TK-10 renal and in the assay with SK-MEL-2 melanoma was greater than 100 µM each time. Moreover, the TGI in the assay on MCF7 breast, with BT-549 breast and in the assay on SK-MEL-5 melanoma was greater than 100 µM throughout.

As for `c1ccc(CNCCCNCCCCNCCCNCc2ccccc2)cc1`, the TGI with HT29 colon amounted to 5.86 µM; in the assay with HCT-116 colon, 14.4 µM; with NCI-H23 lung, 12.3 µM; in the assay with PC-3 prostate, 11.2 µM; in the assay on 786-0 renal, 2.97 µM; in the assay on M14 melanoma, 16.1 µM. Besides, the TGI in the assay with MDA-N was 4.13 µM; in the assay with CAKI-1 renal, 23 µM; in the assay with NCI/ADR-RES ovarian it was greater than 100 µM; with TK-10 renal it was 18 µM; in the assay on SK-MEL-2 melanoma, 31.4 µM; in the assay with OVCAR-3 ovarian, 28.3 µM. For the same molecule, the TGI in the assay with MCF7 breast is 14.4 µM; in the assay with BT-549 breast, 33.3 µM; in the assay on SK-MEL-5 melanoma it was greater than 56.2 µM.

Consider `N=C1/C(=C/c2ccccc2)C(=O)N=C2SC=NN12`, for which the TGI in the assay on HT29 colon, with HCT-116 colon, in the assay with NCI-H23 lung, in the assay with PC-3 prostate, in the assay with 786-0 renal and in the assay with M14 melanoma was greater than 100 µM in each case. Also, the TGI in the assay with MDA-N, in the assay with CAKI-1 renal, in the assay on NCI/ADR-RES ovarian, in the assay with TK-10 renal, in the assay with SK-MEL-2 melanoma and in the assay with OVCAR-3 ovarian was greater than 100 µM throughout. For the same molecule, the TGI with MCF7 breast, in the assay with BT-549 breast and with SK-MEL-5 melanoma was greater than 100 µM each time.

For `COc1cc(CC(C)N[C@@H](C)c2ccccc2)cc(OC)c1` (stereo partly specified), the TGI is 13.1 µM and > 100 µM in the assay with HT29 colon; 26 µM and > 100 µM in the assay on HCT-116 colon; 27.3 µM and > 100 µM in the assay with NCI-H23 lung; 14.2 µM and > 100 µM in the assay on PC-3 prostate; 17.3 µM and > 100 µM in the assay on 786-0 renal; 21 µM and > 100 µM with A498 renal. Moreover, the TGI is 21.9 µM and > 100 µM in the assay with M14 melanoma; 16.3 µM and > 100 µM in the assay on MDA-N; greater than 100 µM in the assay with CAKI-1 renal; greater than 100 µM in the assay with NCI/ADR-RES ovarian; 24.7 µM and > 100 µM in the assay on TK-10 renal; greater than 100 µM in the assay on SK-MEL-2 melanoma. In addition, the TGI in the assay on OVCAR-3 ovarian was 21.1 µM and > 100 µM; with MCF7 breast, 20.1 µM and > 100 µM; with BT-549 breast, 20.4 µM and > 100 µM. The GI50 in the assay on NCI-H23 lung was 11.6 µM and > 100 µM; with A498 renal it was 7.9 µM and 41.8 µM; in the assay with NCI/ADR-RES ovarian, greater than 100 µM; with TK-10 renal, 12.2 µM and 53.8 µM.

Regarding `Nc1nc(NNc2ccccc2F)cc(=O)[nH]1`, the TGI in the assay on HT29 colon, in the assay with HCT-116 colon, in the assay with PC-3 prostate, in the assay on 786-0 renal, with A498 renal and with M14 melanoma was greater than 100 µM throughout. In addition, the TGI with MDA-N, in the assay with NCI/ADR-RES ovarian, in the assay on TK-10 renal, with OVCAR-3 ovarian, in the assay on MCF7 breast and in the assay on BT-549 breast was greater than 100 µM throughout. In the assay on SK-MEL-5 melanoma, this molecule returned a TGI greater than 100 µM.

Take `CCCC(=O)n1[nH]c(=O)n(C(C)(C)C)c1=O`: the TGI with HT29 colon, with HCT-116 colon, with NCI-H23 lung, in the assay with PC-3 prostate, with 786-0 renal and in the assay with M14 melanoma was greater than 100 µM each time. For the same molecule, the TGI in the assay on MDA-N, in the assay with CAKI-1 renal, with NCI/ADR-RES ovarian, with TK-10 renal, in the assay with SK-MEL-2 melanoma and with OVCAR-3 ovarian was greater than 100 µM each time. Besides, the TGI in the assay on MCF7 breast, in the assay on BT-549 breast and in the assay on SK-MEL-5 melanoma was greater than 100 µM in each case.

For the molecule `O=C(OCC(Cl)(Cl)Cl)N1CC[C@@H](C2CCCCC2)C1`, the TGI was 80.7 µM with HCT-116 colon; 64.2 µM with NCI-H23 lung; 46.3 µM with PC-3 prostate; 43 µM in the assay with 786-0 renal; 96.5 µM in the assay on M14 melanoma; greater than 100 µM in the assay with MDA-N. Besides, the TGI in the assay with CAKI-1 renal is 76.5 µM; in the assay on NCI/ADR-RES ovarian, 32.9 µM; in the assay with TK-10 renal it was greater than 100 µM; in the assay with SK-MEL-2 melanoma, 33.1 µM; with OVCAR-3 ovarian, 32.2 µM; in the assay on MCF7 breast, 45.5 µM. Moreover, the TGI is greater than 100 µM with BT-549 breast and 36.6 µM with SK-MEL-5 melanoma.

On to `O=C(/C=C/c1cc(F)ccc1F)OCCc1ccccc1`, for which the TGI with HT29 colon, with HCT-116 colon, in the assay on NCI-H23 lung, in the assay with PC-3 prostate, in the assay on 786-0 renal and in the assay with A498 renal was greater than 100 µM throughout. Besides, the TGI in the assay on M14 melanoma, in the assay on MDA-N, with CAKI-1 renal, in the assay with NCI/ADR-RES ovarian, in the assay on TK-10 renal and in the assay on SK-MEL-2 melanoma was greater than 100 µM each time. Also, the TGI with MCF7 breast, in the assay with BT-549 breast and with SK-MEL-5 melanoma was greater than 100 µM in each case.

For `Cc1ccc(S(=O)(=O)N/N=C2/C3C(CC2(C)C)C2(C)CCCC3(C)C2O)cc1` (stereo unspecified), the TGI in the assay with HT29 colon is 39.6 µM; in the assay on HCT-116 colon it was 33.9 µM; with NCI-H23 lung, 42.8 µM; in the assay on PC-3 prostate, 29.7 µM; in the assay with 786-0 renal it was 45.3 µM; in the assay with M14 melanoma, 56.3 µM. Further, the TGI in the assay on MDA-N was 37.9 µM; with CAKI-1 renal it was greater than 100 µM; in the assay with NCI/ADR-RES ovarian, 94.6 µM; with TK-10 renal it was greater than 100 µM; in the assay with SK-MEL-2 melanoma it was 45.8 µM; in the assay on OVCAR-3 ovarian, greater than 100 µM. In addition, the TGI in the assay on MCF7 breast is 43.2 µM; with BT-549 breast, 31 µM; with SK-MEL-5 melanoma, 28.8 µM.
